Common to all, as to assay type: cell-based
One experiment has as its target T1, human D2R (Homo sapiens, UniProt P14416).
T1 construct: expressed in transfected cells; host or cells: HEK-293
The experiment can be described thus: Ultra Lance cAMP assay, D2R. To be noted: functional activity, human D2R expressed by HEK-293 cells; NA: no activity. As to the method:
(§1) 1.2 Biological Evaluation
(§2) 1.2.1. Ultra Lance cAMP assay
(§3) The Ultra Lance cAMP assay was performed to evaluate the function of synthesized compounds to D2R and 5-HT1AR with human D2R and 5-HT1AR expressed by HEK-293 cells.
(§4) […] The IC50 values were calculated by nonlinear regression using a sigmoidal function.
A general note: Cyclic AMP is a second messenger, typically raised through Gs and lowered through Gi signalling.

A further experiment has as its target T2, human 5-HT1AR (Homo sapiens, UniProt P08908).
T2 construct: expressed in transfected cells; host or cells: HEK-293
T2 sequence (P08908 1-422): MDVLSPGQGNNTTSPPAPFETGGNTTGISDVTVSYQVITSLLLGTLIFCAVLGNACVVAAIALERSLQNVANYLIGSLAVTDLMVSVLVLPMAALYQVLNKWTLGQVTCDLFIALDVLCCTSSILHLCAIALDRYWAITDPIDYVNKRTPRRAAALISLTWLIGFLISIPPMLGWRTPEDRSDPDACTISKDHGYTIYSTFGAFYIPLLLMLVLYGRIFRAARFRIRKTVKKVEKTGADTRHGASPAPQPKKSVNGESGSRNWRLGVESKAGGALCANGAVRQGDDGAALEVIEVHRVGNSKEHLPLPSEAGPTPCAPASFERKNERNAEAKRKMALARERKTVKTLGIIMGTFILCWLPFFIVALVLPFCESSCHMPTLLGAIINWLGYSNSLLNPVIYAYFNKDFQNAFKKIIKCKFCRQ
The experiment can be described thus: Ultra Lance cAMP assay, 5-HT1AR. The conditions noted are these: agonistic functional activity, human 5-HT1AR expressed by HEK-293 cells; NA: no activity. As to the method: as §1, §2, §3, §4

For another experiment, the target named is T3, human 5-HT2AR (Homo sapiens, UniProt P28223).
T3 construct: expressed in transfected cells; host or cells: CHO-K1
T3 sequence (P28223 whole entry): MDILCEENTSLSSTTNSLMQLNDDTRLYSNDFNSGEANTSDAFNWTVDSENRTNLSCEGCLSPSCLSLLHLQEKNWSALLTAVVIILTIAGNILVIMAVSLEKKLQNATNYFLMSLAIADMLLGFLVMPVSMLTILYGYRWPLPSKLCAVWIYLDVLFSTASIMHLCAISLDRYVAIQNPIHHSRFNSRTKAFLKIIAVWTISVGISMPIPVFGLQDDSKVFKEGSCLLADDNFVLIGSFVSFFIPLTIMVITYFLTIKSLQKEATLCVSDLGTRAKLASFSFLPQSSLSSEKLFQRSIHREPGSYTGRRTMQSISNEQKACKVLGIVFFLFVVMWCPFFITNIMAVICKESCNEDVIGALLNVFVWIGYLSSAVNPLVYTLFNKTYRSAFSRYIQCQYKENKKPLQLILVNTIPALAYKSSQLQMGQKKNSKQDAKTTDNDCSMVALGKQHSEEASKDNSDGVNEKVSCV
The experiment can be described thus: Fluorometric Imaging Plate Reader (FLIPR) assay, 5-HT2AR. The conditions noted are these: functional activity, calcium flux, human 5-HT2AR expressed by CHO-K1 cells; NA: no activity. As to the method: 1.2.2. Fluorometric Imaging Plate Reader (FLIPR) assay
The FLIPR assay was performed to evaluate the function of synthesized compounds to 5-HT2AR with human 5-HT2AR expressed by CHO-K1 cells. Reference compound for 5-HT2AR was […]
[…] After 15 min add 22.5 µl /well of inducer and calcium flux signal is measured. The IC50 values were calculated by nonlinear regression using a sigmoidal function.
On the technique in general: Calcium assays in cells follow changes in intracellular calcium, usually with a dye or a luminescent sensor.

The structures appear in SMILES notation.

T1 sequence (P14416 whole entry): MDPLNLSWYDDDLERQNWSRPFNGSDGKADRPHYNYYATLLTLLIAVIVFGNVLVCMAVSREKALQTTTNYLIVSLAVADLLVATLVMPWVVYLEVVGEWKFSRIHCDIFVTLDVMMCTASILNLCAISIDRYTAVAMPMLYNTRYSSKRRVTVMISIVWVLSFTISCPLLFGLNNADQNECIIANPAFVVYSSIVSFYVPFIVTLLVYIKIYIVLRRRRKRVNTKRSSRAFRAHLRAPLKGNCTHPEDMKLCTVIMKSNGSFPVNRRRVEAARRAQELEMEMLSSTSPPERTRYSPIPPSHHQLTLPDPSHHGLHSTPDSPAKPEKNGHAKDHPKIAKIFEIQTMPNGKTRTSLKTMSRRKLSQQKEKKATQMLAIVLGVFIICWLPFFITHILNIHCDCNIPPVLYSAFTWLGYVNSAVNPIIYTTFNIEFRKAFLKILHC

Turning to `N#Cc1ccc2[nH]cc(CCCN3CCN(C(=O)c4cc(S(=O)(=O)NCC5CC5)ccc4OCC4CC4)CC3)c2c1` [Compound 13g], the IC50 (in general, the point on the concentration scale where inhibition reaches its midpoint) on human D2R stood at 4310 nM; on human 5-HT2AR, 2280 nM. Moreover, the EC50 (commonly the concentration needed to bring the measured effect to its halfway point) on human 5-HT1AR is 5.35 nM.
At human 5-HT1AR, `N#Cc1ccc2[nH]cc(CCCN3CCN(C(=O)c4cc(S(=O)(=O)NCC5CC5)ccc4OCC4COC4)CC3)c2c1` [Compound 13n] displayed a concentration for a half-maximal effect (EC50) of 31.6 nM. For the same compound, the IC50 at human 5-HT2AR was over 5000 nM.
In the case of `CC(Oc1ccc(S(C)(=O)=O)cc1C(=O)N1CCN(CCCc2c[nH]c3ccc(C#N)cc23)CC1)C(F)(F)F` (centres unmarked) [Compound 13c], a half-maximal effect on human 5-HT1AR (EC50) was put at 197 nM. The IC50 at human 5-HT2AR was 1140 nM.
Turning to `CNS(=O)(=O)c1ccc(OC2COC2)c(C(=O)N2CCN(CCCc3c[nH]c4ccc(C#N)cc34)CC2)c1` [Compound 13l], the EC50 at human 5-HT1AR was 524 nM.
`CC(C)COc1ccc(S(=O)(=O)NCC2CC2)cc1C(=O)N1CCN(CCCc2c[nH]c3ccc(C#N)cc23)CC1` [Compound 13m]: the figures for the half-maximal inhibitory concentration (IC50) at human D2R and at human 5-HT2AR were over 5000 nM and 1530 nM, respectively. Also, at human 5-HT1AR, a half-maximal effect (EC50) was put at 1.01 nM.
In the case of `CNS(=O)(=O)c1ccc(OC(C)C)c(C(=O)N2CCN(CCCc3c[nH]c4ccc(C#N)cc34)CC2)c1` [Compound 13j], the “5-HT1AR EC50” value on human 5-HT1AR is listed as “completely lose activity”.
For `CCS(=O)(=O)c1ccc(OCC2CC2)c(C(=O)N2CCN(CCCc3c[nH]c4ccc(C#N)cc34)CC2)c1` [Compound 13e], the IC50 was over 5000 nM against human D2R and 1290 nM on human 5-HT2AR. For the same compound, on human 5-HT1AR, the EC50 worked out at 49.2 nM.
Consider `CCOc1ccc(S(=O)(=O)NC)cc1C(=O)N1CCN(CCCc2c[nH]c3ccc(C#N)cc23)CC1` [Compound 13k], for which the EC50 at human 5-HT1AR was determined as 77.5 nM. Moreover, the IC50 on human 5-HT2AR was found to be 1780 nM.
Consider `N#Cc1ccc2[nH]cc(CCCN3CCN(C(=O)c4cc(S(=O)(=O)NCC5CC5)ccc4OC4COC4)CC3)c2c1` [Compound 13q, 3-(4-(3-(5-cyano-1H-indol-3-yl)propyl)piperazine-1-carbonyl)-N-(cyclopropylmethyl)-4-(oxetan-3-yloxy)benzenesulfonamide], for which the EC50 on human 5-HT1AR was 175 nM.
`CNS(=O)(=O)c1ccc(OCC2COC2)c(C(=O)N2CCN(CCCc3c[nH]c4ccc(C#N)cc34)CC2)c1` [Compound 13i] returned an EC50 on human 5-HT1AR of 400 nM. The IC50 on human 5-HT2AR amounted to 4190 nM.
Turning to `CC(C)Oc1ccc(S(=O)(=O)NCC2CC2)cc1C(=O)N1CCN(CCCc2c[nH]c3ccc(C#N)cc23)CC1` [Compound 13o, 3-(4-(3-(5-cyano-1H-indol-3-yl)propyl)piperazine-1-carbonyl)-N-(cyclopropylmethyl)-4-isopropoxybenzenesulfonamide], the response at human 5-HT1AR was half-maximal at 22.8 nM (EC50).
Take `CNS(=O)(=O)c1ccc(OCC(C)C)c(C(=O)N2CCN(CCCc3c[nH]c4ccc(C#N)cc34)CC2)c1` [Compound 13h]: on human 5-HT1AR, the EC50 worked out at 5.67 nM. The IC50 at human 5-HT2AR came out at 567 nM.
In the case of `CS(=O)(=O)c1ccc(N2CCOCC2)c(C(=O)N2CCN(CCCc3c[nH]c4ccc(C#N)cc34)CC2)c1` [Compound 13b], the EC50 at human 5-HT1AR was determined as 990 nM.
With `CS(=O)(=O)c1ccc(F)c(C(=O)N2CCN(CCCc3c[nH]c4ccc(C#N)cc34)CC2)c1` [Compound 13a], a half-maximal response at human 5-HT1AR (EC50) required 168 nM. Moreover, the IC50 at human 5-HT2AR was over 5000 nM.
For the compound `CS(=O)(=O)c1ccc(OCC2CC2)c(C(=O)N2CCN(CCCc3c[nH]c4ccc(C#N)cc34)CC2)c1` [Compound 13d], the EC50 at human 5-HT1AR is 88 nM. Also, at human 5-HT2AR, the IC50 is 887 nM.
In turn, `CCOc1ccc(S(=O)(=O)NCC2CC2)cc1C(=O)N1CCN(CCCc2c[nH]c3ccc(C#N)cc23)CC1` [Compound 13p, 3-(4-(3-(5-cyano-1H-indol-3-yl)propyl)piperazine-1-carbonyl)-N-(cyclopropylmethyl)-4-ethoxybenzenesulfonamide] showed an EC50 at human 5-HT1AR of 48.2 nM. For the same compound, the IC50 on human 5-HT2AR turned out to be 4730 nM.
As for `CNS(=O)(=O)c1ccc(OCC2CC2)c(C(=O)N2CCN(CCCc3c[nH]c4ccc(C#N)cc34)CC2)c1` [Compound 13f], the EC50 at human 5-HT1AR turned out to be 23.6 nM. In addition, the IC50 on human 5-HT2AR was 1100 nM.
